In US8518953B2, “Aminopyrimidines useful as inhibitors of protein kinases” (Vertex Pharmaceuticals Incorporated, priority 2007, dated 2013):

How the values were obtained:
β-catenin = β-catenin induction in brains of MCAO rats (Western blot); assay type: in vivo, rat; conditions: all doses, at the termination of the study
Method: Hypotonic Lysis Buffer consists of 10 mM HEPES, 10 mM KCL, 1.5 mM MgCl2, 1.0 mM EDTA, 1.0 mM DTT, 1× Roche protease inhibitor cocktail, and 1.0 mM AEBSF Calbiochem protease inhibitor cocktail (cat#539134). All concentrations are final and are diluted in water. First, hypotonic lysis buffer is added to the tissue at 5×'s weight. The tissue is then broken up on ice using the end of a syringe plunger. Next, the samples are freeze-thawed five times. The lysates are then transferred to ultracentrifuge tubes and spun at 100,000 g for 35 min at 4° C. The supernatants are then collected and an aliquot is taken to measure protein with the Pierce BCA protein assay kit (cat#23225), using BSA standard curve. The remaining protein lysates are diluted 1:1 with laemmli sample buffer containing β-mercaptoethanol. The protein concentration is then normalized. The samples are boiled for 5 min at 95° C. followed by a spin at 14,000 rpm in a mini-centrifuge for 1 min. The samples are then snap frozen with dry ice and stored at −20° C. The samples are first loaded on 10% Tris-glycine gel (10 uL/well). […] Induction of β-catenin is determined by comparison of the density of protein band in samples obtained from compound treated animals with that of vehicle treated animals. […] Lysates were analyzed by Western blot (see Example 3) and probed for GSK-3α/β pTYR levels. […]

rats subjected to MCAO = test: Post Stroke Recovery MCAO Model: Tray Reaching; assay type: in vivo, rat; conditions: 7 and 14 days after stroke, compared with vehicle treatment
From the text: Adult male Wistar rats are pre-trained on a battery of behavioral tests including: tray reach, gridwalk, forelimb asymmetry (cylinder bracing), forelimb inhibition (swim test) (see below for detailed description of tests). Following pre-stroke behavioral assessment the rats receive surgery during which a stroke is induced. The rats are pseudo-randomly divided into 5 equal groups (n=12) ensuring an equal number of right and left strokes within each treatment group. The first group receives sham surgery with vehicle as treatment. Administration of the test compound and vehicle (dose, route, timing) is determined by the sponsor. The core body temperature is maintained at 37° C. (+/−1°).
Following surgery all animals are behaviorally assessed 1, 7, and 14 d post-stroke. At the conclusion of behavioral assessment all rats undergo an MRI to determine infarct volume. […]
Each animal is weighed (average weights were 340 g) and then anesthetized with isoflurane (4% isoflurane carried on 2 l/min medical grade oxygen to induce surgical plane and then 2% with 2 l/min oxygen to maintain a surgical plane). […] Rectal temperature is monitored and maintained at 37 C+/−1° C. for the duration of the surgery and until the rat is awake and mobile (approximately 3 hr). […]
Forepaw use is measured with a procedure that is adapted from the method devised by Whishaw, O'Connor, and Dunnett (1986). […]

induction of β-catenin in the brain (β-catenin): no induction of β-catenin
Structure (SMILES): Cc1nc(-c2ccccc2Cl)nc(Nc2n[nH]c3ncc(F)cc23)c1C [Compound I-1, N-(2-(2-chlorophenyl)-5,6-dimethylpyrimidin-4-yl)-5-fluoro-1H-pyrazolo[3,4-b]pyridin-3-amine]
deficit in reaching performance (tray reaching) (rats subjected to MCAO): significantly ameliorated this deficit
